Results reported in PMC8659148, “Drug Repurposing for Influenza Virus Polymerase Acidic (PA) Endonuclease Inhibitor” (Molecules, 2021).

These compounds were tested against mutant PAN-I38T endonuclease (Influenza A virus, UniProt P03433, I38T).
Assay type: biochemical, influenza A type virus (H1N1)
For `C[C@]12C=CC(=O)N[C@@H]1CC[C@@H]1[C@@H]2CC[C@]2(C)[C@@H](C(=O)Nc3cc(C(F)(F)F)ccc3C(F)(F)F)CC[C@@H]12` [dutasteride], the “inhibition of the endonuclease activity of PAN-I38T (in words)” value (“inhibition” below) was “no inhibition”.
In the case of `CS(=O)(=O)c1cccc(C[C@H](NC(=O)c2c(Cl)cc3c(c2Cl)CCN(C(=O)c2ccc4ccoc4c2)C3)C(=O)O)c1` [lifitegrast], the “inhibition” value is reported as “inhibitory effect”.
`O=C1[C@@H]2[C@H]3CC[C@H](C3)[C@@H]2C(=O)N1C[C@@H]1CCCC[C@H]1CN1CCN(c2nsc3ccccc23)CC1` [lurasidone] was tested, and the “inhibition” value was “no inhibition”.
With `CO[C@H]1/C=C/O[C@@]2(C)Oc3c(C)c(O)c4c(O)c(c5c(nc6cc(C)ccn65)c4c3C2=O)NC(=O)/C(C)=C\C=C\[C@H](C)[C@H](O)[C@@H](C)[C@@H](O)[C@@H](C)[C@H](OC(C)=O)[C@@H]1C` [rifaximin] the “inhibition” value was “no inhibition”.
For `CC(C)(C)NC(=O)[C@@H]1C[C@@H]2CCCC[C@@H]2CN1C[C@@H](O)[C@H](Cc1ccccc1)NC(=O)[C@H](CC(N)=O)NC(=O)c1ccc2ccccc2n1` [saquinavir], the “inhibition” value was “no inhibition”.
